A word on the EC50: it is the concentration needed to bring the measured effect to its halfway point. Low values mean an effect from little substance, high ones a need for much substance. A word on the logD: it is lipophilicity at a set pH, counting ionised and neutral species. The low end stands for a more hydrophilic compound, the high end for a more lipophilic compound. Usually pKa stands for the pH at which an ionisable group is half protonated. The low end stands for a stronger acid or weaker base, the high end for a weaker acid or stronger base.

Experimental findings from ChEMBL document CHEMBL1135608, “Discovery of the first nonpeptide agonist of the GPR14/urotensin-II receptor: 3-(4-chlorophenyl)-3-(2- (dimethylamino)ethyl)isochroman-1-one (AC-7954)” (J Med Chem, 2002) are described below.

Data set [1] addresses T1, Urotensin-2 receptor (Homo sapiens, UniProt Q9UKP6).
T1 sequence (Q9UKP6 whole entry): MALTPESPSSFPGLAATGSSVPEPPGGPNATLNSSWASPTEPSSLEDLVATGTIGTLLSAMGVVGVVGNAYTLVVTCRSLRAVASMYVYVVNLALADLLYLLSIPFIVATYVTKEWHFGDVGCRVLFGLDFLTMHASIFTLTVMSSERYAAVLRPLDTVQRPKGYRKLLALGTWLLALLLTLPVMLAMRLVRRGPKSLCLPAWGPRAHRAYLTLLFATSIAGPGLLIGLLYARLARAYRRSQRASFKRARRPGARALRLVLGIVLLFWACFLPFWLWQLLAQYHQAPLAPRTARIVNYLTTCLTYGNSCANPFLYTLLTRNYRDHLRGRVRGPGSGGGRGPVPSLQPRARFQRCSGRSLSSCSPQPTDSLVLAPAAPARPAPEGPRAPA
As to the kind of experiment: Potency against human Urotensin 2 receptor.

Data set [2] can be described thus: Lipophilicity of the compound. The class given is physicochemical. The note with it: octanol/water.
In data set [3] the target is T2, Urotensin-2 receptor (Rattus norvegicus, UniProt P49684).
T2 sequence (P49684 whole entry): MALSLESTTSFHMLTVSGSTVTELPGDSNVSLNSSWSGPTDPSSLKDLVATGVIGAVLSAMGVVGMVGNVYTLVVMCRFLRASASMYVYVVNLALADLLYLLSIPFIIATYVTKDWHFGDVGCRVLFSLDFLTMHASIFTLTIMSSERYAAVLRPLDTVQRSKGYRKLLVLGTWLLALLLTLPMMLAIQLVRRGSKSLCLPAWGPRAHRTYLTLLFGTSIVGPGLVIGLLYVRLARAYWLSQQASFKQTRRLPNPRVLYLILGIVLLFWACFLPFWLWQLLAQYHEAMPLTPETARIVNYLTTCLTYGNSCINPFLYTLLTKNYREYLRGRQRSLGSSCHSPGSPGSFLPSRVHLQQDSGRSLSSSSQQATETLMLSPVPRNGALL
The experiment in a line: Potency against rat Urotensin 2 receptor.

A short description of data set [4]: Dissociation constant of the compound. The class given is physicochemical.

Consider `CN(C)CCC1(c2ccc(Cl)cc2)Cc2ccccc2C(=O)O1` (single isomer, unassigned; (+)), for which, in data set [1], the midpoint of the response, the EC50, lay at 251 nM.
For the compound `CN(C)CCC1(c2ccc(Cl)cc2)Cc2ccccc2C(=O)O1` (stereo in doubt; 1), the logD in data set [2] was found to be 2.1. The EC50 in data set [1] is 316 nM; in data set [3] it was 200 nM. Also, the pKa in data set [4] was 8.7.
